According to patent US10722578B2, “Methods and compositions for treating neuroblastoma” (The Children's Hospital of Philadelphia, priority 2008, dated 2020):
Values joined by “and” are separate entries in the source; they are usually repeats but may differ in a detail not shown here. Identical values can stand only once. “Also recorded” adds a separate entry of the source. Like-named read-outs stand apart in the source and are kept apart here.

Key:
neuroblastoma cell lines = experiment: In vitro growth inhibition (RT-CES), panel of neuroblastoma cell lines; format: cell-based, human; conditions: 333 nM, 72 hours; for Inhibition of growth, cell lines with ALK amplification or mutations: compared with normal copy number wild type ALK lines
Source text: A quantitative assay to evaluate growth inhibition in a multi-well was used in a parallel format to screen for cellular cytotoxicity. […] For FIG. 7, the biochemical consequences of ALK activation and downstream signaling pathways were studied in ALK-mutant lines.
(§1) To verify cell line integrity, all lines were routinely genotyped (AmpFLSTR® Identifiler® kit; Applied Biosystems) and mycoplasma tested.
It has been shown that mRNA knockdown of ALK in neuroblastoma cell lines with mutation or amplification is cytotoxic, and thus ALK inhibition might offer a tractable therapeutic target.

NB1 (WT amplification) = conditions: NB1, dose-dependent
Source text: as §1

NB1643 (R1275Q) = conditions: NB1643, dose-dependent
Source text: as §1

SH-SY5Y (F1174L) = conditions: did not occur until this dose
Source text: as §1

SY5Y cells [1] = experiment: Antibody-dependent cell-mediated cytotoxicity assay, SY5Y targets; format: cell-based, human; conditions: SY5Y pre-incubated 48 hours with crizotinib, then ALK antibody, mean
Description: The Cyto Tox 96 Non-Radioactive Cytotoxicity Assay (Promega) was used to assess antibody-dependent cell mediated cytotoxicity. […] Non-adherent peripheral blood lymphocytes were then replated in complete RPMI containing 1000 IU/ml rhIL-2 (Chiron) and incubated overnight. The following day, effector cells were collected and washed. Target NB1 or SY5Y cells that had been grown on T75 flasks until 70-80% confluency were also harvested and washed. […] Control wells were plated according to the manufacturer's specifications. After a 4-hour incubation at 37° C., cell viability was assessed by an enzymatic assay allowing for the quantification of lactate dehydrogenase which is released upon cell lysis. The % cytotoxicity was calculated as follows: [(Experimental−Effector Spontaneous−Target Spontaneous)/(Target Maximum−Target Spontaneous)]×100. […] Results shown are representative of three independent experiments, and quoted as mean±standard deviation.

SY5Y cells [2] = experiment: Propidium iodide staining, cell cycle analysis, SY5Y; format: cell-based, human; conditions: 1000 nM crizotinib, 10 μg/ml antibody, or both, mean
[3] = test system: SHSY5Y (F1174L) xenografts; conditions: 100 mg/kg/day oral gavage, 4 weeks; end point tumor volume ≥1.5 cm^3 or treatment related death
NBSD (F1174L) xenografts = conditions: 100 mg/kg/day oral gavage, 4 weeks
NBEBc1 (WT) xenografts = conditions: 100 mg/kg/day oral gavage, 4 weeks
SKNAS (WT) xenografts = conditions: 100 mg/kg/day oral gavage, 4 weeks
pSTAT3, pAKT, and pERK = experiment: In vitro phosphoprotein detection (immunoblot), downstream signaling; conditions: NB1 (wild type amplified)

Q: Which results are given for `C[C@@H](Oc1cc(-c2cnn(C3CCNCC3)c2)cnc1N)c1c(Cl)ccc(F)c1Cl` [PF-02341066, crizotinib]?
A: Inhibition of growth, cell lines with normal copy number WT ALK (neuroblastoma cell lines): No cell lines with normal copy number WT ALK showed significant inhibition; Sensitivity of R1275Q cell lines compared with F1174L cell lines (neuroblastoma cell lines): more sensitive; Inhibition of growth, cell lines with ALK amplification or mutations (neuroblastoma cell lines): significantly superior inhibition of growth; Inhibition of growth, cell lines with ALK amplification or mutations (neuroblastoma cell lines; listed as PF2341066): sensitive; also recorded: significantly more sensitive; Sensitivity of R1275Q cell lines compared with F1174L cell lines (neuroblastoma cell lines; listed as PF2341066): R1275Q mutations were more sensitive than F1174L mutations; also recorded: significantly more sensitive; Dose at which inhibition of proliferation occurred (NB1 (WT amplification)): 33 to 100 nM; Dose at which inhibition of proliferation occurred (NB1643 (R1275Q)): 33 to 100 nM and 33 nM; Dose at which inhibition of proliferation occurred (SH-SY5Y (F1174L)): 1000 nM; ADCC % cytotoxicity (SY5Y cells [1]; effector:target 25:1): 33.7±2.5%; ADCC % cytotoxicity (SY5Y cells [1]; effector:target 50:1): 55.7±9.3%; sub G0 fraction (SY5Y cells [2]): increased the sub G0 fraction, but to a smaller extent than seen with dual treatment; Prolongation of survival [3]: 7.7 days; Prolongation of survival (NBSD (F1174L) xenografts): 3.7 days; Prolongation of survival (NBEBc1 (WT) xenografts): 5.1 days; Prolongation of survival / days to reach tumor volume of 1.5 cm^3 (SKNAS (WT) xenografts): non-significant difference in days to reach a tumor volume of 1.5 cm^3; Prolongation of survival / days to reach tumor volume of 1.5 cm^3 (SKNAS (WT) xenografts; listed as PF-2341066): neither a delay in tumor growth (P=0.87) or prolongation of survival; Abrogation of phosphorylation of STAT3, AKT and ERK (pSTAT3, pAKT, and pERK): substantial abrogation
